These are literature values, as cited in patent publication US20050232957A1, “Compositions and methods for moisturizing skin” (priority 2004, published 2005).

Structures are written as SMILES.

For this data set the following is noted: person, one month after starting treatment.

For `CS(=O)(=O)c1ccc(C2=C(c3ccccc3)C(=O)OC2)cc1` [rofecoxib], the “aquagenic wrinkling of the palms (AWP)” value is listed as “developed AWP”.
